From patent US20260217720A1, “COMPOSITIONS USEFUL FOR MODULATING SPLICING” (Skyhawk Therapeutics, Inc., priority 2023, published 2026)

Assays:
[1] = tested on: ATXN3 transcripts containing exon 4; test: ATXN3 Quantitative Splicing Assay (qPCR, E4E5 primers/probe); type: cell-based; details: Homo sapiens, SK-N-MC cells, 24 h treatment, read-out: ATXN3 Potency - Splicing E4E5 IC50 Mean
Protocol: Human neuroblastoma SK-N-MC cells were plated in 384-well plates at 20,000 cells/well. Twenty-four hours after plating, cells were treated with compounds for 24 h at appropriate concentrations ranging from 30 μM to 0.6 nM (0.3% DMSO). Treated cells were lysed in 15 μL of lysis buffer, and cDNA was synthesized using the Fast Advanced Cells-to-Ct kit. Two μL of each cDNA was used in qPCR reactions to confirm the exon 4 skipped transcripts of ATXN3. A second set of primers/probe E4E5 was used to detect the transcripts containing exon 4. The third set of primers/probe E8E9 was used to detect total gene level of ATXN3. The qPCR reactions were prepared in 384-well plates in 10 μL volume, using TaqMan™ Fast Advanced Master Mix with primers and probes shown in the table below. Reactions were run in a Quant Studio 6 qPCR instrument with default settings.
The primers and probes are listed below in Table 3.

total ATXN3 protein = test: ATXN3 Total Protein Assay (MSD); type: cell-based, Human; details: SK-N-MC cells, 48 hours incubation, read-out: ATXN3 Potency - Protein IC50
Protocol: Human neuroblastoma SK-N-MC cells were seeded at 10,000 cells/well in 384 well plates one day prior to compound treatment. The concentrations of compounds were tested at appropriate doses ranging from 30 μM to 0.6 nM. After incubation for 48 hours, the cells were lysed with 25 μL of lysis buffer containing protease inhibitors, and total ATXN3 protein levels were assessed by Mesoscale Discovery (MSD) assay developed with one pair of anti-ATXN3 antibodies. The capture and detect antibodies were raised in mouse and rabbit respectively. Anti-rabbit MSD-ST antibody was used for secondary antibody.
ATXN3 recombinant protein was used for standards. The readouts were captured with 35 μL of MSD read buffer and multi-array 384-well high binding plates.

Structure (SMILES) | IC50 [1] | IC50 (total ATXN3 protein)
Cc1c(C[C@H](C)N)cc2c(NCc3cccs3)cc(Cl)nn12 [Compound 1, (S)-6-(2-aminopropyl)-2-chloro-7-methyl-N-(thiophen-2-ylmethyl)pyrrolo[1,2-b]pyridazin-4-amine] | 101 to 500 nM | 101 to 500 nM
C[C@H](N)Cc1cc2c(NCc3cccs3)cc(Cl)nn2c1Cl [Compound 2, (S)-6-(2-aminopropyl)-2,7-dichloro-N-(thiophen-2-ylmethyl)pyrrolo[1,2-b]pyridazin-4-amine] | 0.01 to 100 nM | –
COC[C@H](N)Cc1cc2c(NCc3cccs3)cc(Cl)nn2c1C [Compound 3, (R)-6-(2-amino-3-methoxypropyl)-2-chloro-7-methyl-N-(thiophen-2-ylmethyl)pyrrolo[1,2-b]pyridazin-4-amine] | 501 to 5000 nM | –
C[C@H](F)[C@H](N)Cc1cc2c(NCc3cccs3)cc(Cl)nn2c1 [Compound 4, 6-((2R,3S)-2-amino-3-fluorobutyl)-2-chloro-N-(thiophen-2-ylmethyl)pyrrolo[1,2-b]pyridazin-4-amine] | 101 to 500 nM | –
Cc1c(C[C@@H](N)CF)cc2c(NCc3cccs3)cc(Cl)nn12 [Compound 5, (R)-6-(2-amino-3-fluoropropyl)-2-chloro-7-methyl-N-(thiophen-2-ylmethyl)pyrrolo[1,2-b]pyridazin-4-amine] | 501 to 5000 nM | 101 to 500 nM
Cc1c(C[C@@H](N)[C@H](C)F)cc2c(NCc3cccs3)cc(Cl)nn12 [Compound 6, 6-((2R,3S)-2-amino-3-fluorobutyl)-2-chloro-7-methyl-N-(thiophen-2-ylmethyl)pyrrolo[1,2-b]pyridazin-4-amine] | 101 to 500 nM | 101 to 500 nM
N[C@@H](CF)Cc1cc2c(NCc3cccs3)cc(Cl)nn2c1 [Compound 7, (R)-6-(2-amino-3-fluoropropyl)-2-chloro-N-(thiophen-2-ylmethyl)pyrrolo[1,2-b]pyridazin-4-amine] | 101 to 500 nM | –

More lines, now with the values ahead:

IC50 [1] | IC50 (total ATXN3 protein) | Structure (SMILES)
0.01 to 100 nM | – | Cc1c(C[C@@H](N)CO)cc2c(NCc3cccs3)cc(Cl)nn12 [Compound 8, (R)-2-amino-3-(2-chloro-7-methyl-4-((thiophen-2-ylmethyl)amino)pyrrolo[1,2-b]pyridazin-6-yl) propan-1-ol]
0.01 to 100 nM | – | N[C@@H](COC(F)F)Cc1cc2c(NCc3cccs3)cc(Cl)nn2c1Cl [Compound 9, (R)-6-(2-amino-3-(difluoromethoxy)propyl)-2,7-dichloro-N-(thiophen-2-ylmethyl)pyrrolo[1,2-b]pyridazin-4-amine]
0.01 to 100 nM | – | N[C@@H](CF)Cc1cc2c(NCc3cccs3)cc(Cl)nn2c1Cl [Compound 10, (R)-6-(2-amino-3-fluoropropyl)-2,7-dichloro-N-(thiophen-2-ylmethyl)pyrrolo[1,2-b]pyridazin-4-amine]
0.01 to 100 nM | – | C[C@H](F)[C@H](N)Cc1cc2c(NCc3cccs3)cc(Cl)nn2c1Cl [Compound 11]
